Data taken from patent US20170190671A1, “BIS(ARYL)CATECHOL DERIVATIVES AS HERBICIDES” (E I DU PONT DE NEMOURS AND COMPANY, priority 2014, published 2017).

Tests used:
Test in all cases: Test C preemergence
Assay type in all cases: in vivo
[1] = system: Italian ryegrass (Lolium multiflorum); details: Lolium multiflorum, pre-emergence, 336 h, scale 0 to 100, read-out: Plant response rating, Ryegrass, Italian
In short: (§1)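 Steps: plant seeds in loam-sand soil and treat preemergence, or grow plants in peat-based medium to 2-18 cm and spray; compound formulated in non-phytotoxic solvent/surfactant; hold in greenhouse 13-15 days; score visually versus controls from 0 (no effect) to 100 (complete control).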

[2] = system: barnyardgrass (Echinochloa crus-galli); details: Echinochloa crus-galli, pre-emergence, read-out: Plant response rating, Barnyardgrass
In short: as §1

[3] = system: blackgrass (Alopecurus myosuroides); details: Alopecurus myosuroides, pre-emergence, 336 h, scale 0 to 100, read-out: Plant response rating, Blackgrass
In short: as §1

[4] = system: corn (Zea mays); details: Zea mays, pre-emergence, 336 h, scale 0 to 100
In short: as §1

[5] = system: galium (catchweed bedstraw, Galium aparine); details: Galium, pre-emergence, 336 h, scale 0 to 100, read-out: Plant response rating, Galium
In short: as §1

[6] = system: lambsquarters (Chenopodium album); details: Chenopodium album, pre-emergence, 336 h, scale 0 to 100, read-out: Plant response rating, Lambsquarters
In short: as §1

[7] = system: morningglory (Ipomoea coccinea); details: Ipomoea, pre-emergence, 336 h, scale 0 to 100, read-out: Plant response rating, Morningglory
In short: as §1

[8] = system: pigweed (Amaranthus retroflexus); details: Amaranthus retroflexus, pre-emergence, 336 h, scale 0 to 100, read-out: Plant response rating, Pigweed
In short: as §1

[9] = system: ragweed (common ragweed, Ambrosia elatior); details: Ambrosia artemisiifolia, pre-emergence, 336 h, scale 0 to 100, read-out: Plant response rating, Ragweed
In short: as §1

[10] = system: soybean (Glycine max); details: Glycine max, pre-emergence, scale 0 to 100, read-out: Plant response rating, Soybean
In short: as §1

[11] = system: velvetleaf (Abutilon theophrasti); details: Abutilon theophrasti, pre-emergence, scale 0 to 100, read-out: Plant response rating, Velvetleaf
In short: as §1

[12] = system: waterhemp (common waterhemp, Amaranthus rudis); details: Amaranthus tuberculatus, pre-emergence, scale 0 to 100, read-out: Plant response rating, Waterhemp
In short: as §1

[13] = system: yellow nutsedge (Cyperus esculentus); details: Cyperus, pre-emergence, 336 h, scale 0 to 100, read-out: Plant response rating, Nutsedge, Yellow
In short: as §1

Structure (SMILES): N#Cc1cccc(Oc2ncc(Cl)cn2)c1Oc1ccc(Br)cn1 [Compound 15]
- pest or weed control at 31 g/ha ([1]; 31 g ai/ha, preemergence): 5%
- pest or weed control at 62 g/ha ([1]; 62 g ai/ha, preemergence): 40%
- pest or weed control at 125 g/ha ([1]; 125 g ai/ha, preemergence): 60%
- pest or weed control at 16 g/ha ([1]; Preemergence, 16 g ai/ha): 0%
- pest or weed control at 31 g/ha ([2]; 31 g ai/ha, preemergence, scale 0 to 100): 25%
- pest or weed control at 62 g/ha ([2]; 62 g ai/ha, preemergence, scale 0 to 100): 70%
- pest or weed control at 125 g/ha ([2]; 125 g ai/ha, preemergence, scale 0 to 100): 98%
- pest or weed control at 16 g/ha ([2]; Preemergence, 16 g ai/ha, scale 0 to 100 (0 no effect, 100 complete control)): 10%
- pest or weed control at 31 g/ha ([3]; 31 g ai/ha, preemergence): 0%
- pest or weed control at 62 g/ha ([3]; 62 g ai/ha, preemergence): 10%
- pest or weed control at 125 g/ha ([3]; 125 g ai/ha, preemergence): 80%
- pest or weed control at 16 g/ha ([3]; Preemergence, 16 g ai/ha): 0%
- Corn plant response rating (crop injury, 0 = no effect, 100 = complete kill) at 31 g/ha ([4]; 31 g ai/ha, preemergence): 0%
- Corn plant response rating (crop injury, 0 = no effect, 100 = complete kill) at 62 g/ha ([4]; 62 g ai/ha, preemergence): 5%
- Corn plant response rating (crop injury, 0 = no effect, 100 = complete kill) at 125 g/ha ([4]; 125 g ai/ha, preemergence): 40%
- Corn plant response rating (crop injury, 0 = no effect, 100 = complete kill) at 16 g/ha ([4]; Preemergence, 16 g ai/ha): 0%
- pest or weed control at 31 g/ha ([5]; 31 g ai/ha, preemergence): 100%
- pest or weed control at 62 g/ha ([5]; 62 g ai/ha, preemergence): 95%
- pest or weed control at 125 g/ha ([5]; 125 g ai/ha, preemergence): 100%
- pest or weed control at 16 g/ha ([5]; Preemergence, 16 g ai/ha): 100%
- pest or weed control at 31 g/ha ([6]; 31 g ai/ha, preemergence): 80%
- pest or weed control at 62 g/ha ([6]; 62 g ai/ha, preemergence): 98%
- pest or weed control at 125 g/ha ([6]; 125 g ai/ha, preemergence): 95%
- pest or weed control at 16 g/ha ([6]; Preemergence, 16 g ai/ha): 70%
- pest or weed control at 31 g/ha ([7]; 31 g ai/ha, preemergence): 5%
- pest or weed control at 62 g/ha ([7]; 62 g ai/ha, preemergence): 40%
- pest or weed control at 125 g/ha ([7]; 125 g ai/ha, preemergence): 70%
- pest or weed control at 16 g/ha ([7]; Preemergence, 16 g ai/ha): 5%
- pest or weed control at 31 g/ha ([8]; 31 g ai/ha, preemergence): 100%
- pest or weed control at 62 g/ha ([8]; 62 g ai/ha, preemergence): 100%
- pest or weed control at 125 g/ha ([8]; 125 g ai/ha, preemergence): 100%
- pest or weed control at 16 g/ha ([8]; Preemergence, 16 g ai/ha): 80%
- pest or weed control at 31 g/ha ([9]; 31 g ai/ha, preemergence): 30%
- pest or weed control at 62 g/ha ([9]; 62 g ai/ha, preemergence): 50%
- pest or weed control at 125 g/ha ([9]; 125 g ai/ha, preemergence): 40%
- pest or weed control at 16 g/ha ([9]; Preemergence, 16 g ai/ha): 0%
- plant injury at 31 g/ha ([10]; 31 g ai/ha, preemergence): 30%
- plant injury at 62 g/ha ([10]; 62 g ai/ha, preemergence): 40%
- plant injury at 125 g/ha ([10]; 125 g ai/ha, preemergence): 60%
- plant injury at 16 g/ha ([10]; Preemergence, 16 g ai/ha): 20%
- pest or weed control at 31 g/ha ([11]; 31 g ai/ha, preemergence): 75%
- pest or weed control at 62 g/ha ([11]; 62 g ai/ha, preemergence): 90%
- pest or weed control at 125 g/ha ([11]; 125 g ai/ha, preemergence): 100%
- pest or weed control at 16 g/ha ([11]; Preemergence, 16 g ai/ha): 60%
- pest or weed control at 31 g/ha ([12]; 31 g ai/ha, preemergence): 100%
- pest or weed control at 62 g/ha ([12]; 62 g ai/ha, preemergence): 100%
- pest or weed control at 125 g/ha ([12]; 125 g ai/ha, preemergence): 100%
- pest or weed control at 16 g/ha ([12]; Preemergence, 16 g ai/ha): 100%
- pest or weed control at 31 g/ha ([13]; 31 g ai/ha, preemergence): 0%
- pest or weed control at 62 g/ha ([13]; 62 g ai/ha, preemergence): 0%
- pest or weed control at 125 g/ha ([13]; 125 g ai/ha, preemergence): 25%
- pest or weed control at 16 g/ha ([13]; Preemergence, 16 g ai/ha): 0%
